Assays:
[1] = test system: UMSCC47 HPV(+) head and neck cancer cells; assay: Exosome secretion by UMSCC47 cells; format: cell-based; conditions: for exosome production by UMSCC47 cells: total exosomal protein normalized to 10^6 cells
Experimental: All cell lines were grown at 37° C. in the atmosphere of 5% CO2 in air. Cultures were supplemented with fetal bovine serum (FBS) depleted of exosomes by ultracentrifugation at 100,000×g for 3 h. Cells were cultured in 150 cm^2 cell culture flasks using 25 ml of culture medium. Media used for cell cultures are described in Table 1. Seeding protocol was optimized for each cell type as recently described in Ludwig N., et al., (Exp Cell Res. 2019; 378(2):149-57). After seeding, cells were allowed to attach to the flask for 6 h, were then treated with indicated reagents and incubated for 48 or 72 h as indicated.
Exosome isolation by mini-SEC: Processing of supernatants and exosome isolation by mini-SEC was performed as previously described in Ludwig et al. Briefly, cell culture supernatants were centrifuged at room temperature (RT) for 10 min at 2000×g, were transferred to new tubes for centrifugation at 10,000×g at 4° C. for 30 min and filtrated using a 0.22 μm bacterial filter. Afterwards, aliquots of supernatants were concentrated by using Vivacell 100 concentrators at 2000×g. 1 mL of concentrated supernatant was loaded on a 10 cm-long Sepharose 2-B column and individual 1 mL fractions were collected. Fraction #4 containing non-aggregated exosomes was used in subsequent assays. The established isolation technique fulfils the criteria of the MISEV2018 guidelines and therefore the term ‘exosomes’ is used.
Protein concentration: Protein concentrations were determined by using a BCA protein assay (Pierce Biotechnology, Rockford, Ill., USA) according to the manufacturer's instructions.
Tunable resistive pulse sensing (TRPS): Size distribution and concentrations of the particles in isolated exosome fractions were analyzed using tunable-resistive pulse sensing (TRPS) by qNano (Izon) as described in Ludwig N, et al., Mol Cancer Res. 2018; 16(11):1798-808.

[2] = test system: Preglomerular vascular smooth muscle cells (PGVSMCs); assay: Exosome production by PGVSMCs from CNPase +/+ and −/− rats; format: cell-based, rat; conditions: 8-Br-2′,3′-cAMP 0.3 μM; IAA/DNP 5 μM
Text: Isolation of rat CNPASE +/+ and −/− PGVSMCs: 2′,3′-Cyclic nucleotide 3′-phosphodiesterase (CNPase) knockout rats used in this example were generated by the MCW Gene Editing Rat Resource Program. This strain was produced by injecting a CRISPR targeting the sequence […] into rat embryos. The resulting mutation was a 7 base pair deletion in exon 2. Animals were genotyped by PCR. Preglomerular vascular smooth muscle cells (PGVSMCs) were isolated from kidneys of wild type (CNPase +/+) and knockout (CNPase −/−) rats using a previously described method. Cells were cultured at 37° C. in the atmosphere of 5% CO2 in air using DMEM supplemented with exosome-depleted FBS. Exosome isolation was performed as described above.

Structure (SMILES)	exosome production by UMSCC47 cells [1]	stimulation of exosome production, CNPase −/− versus CNPase +/+ PGVSMCs [2]	effect on stimulation of exosome production by IAA/DNP ([1]; UMSCC47, in combination with IAA/DNP)
Nc1ncnc2c1ncn2[C@@H]1O[C@H](CO)[C@@H](OP(=O)(O)O)[C@H]1O [3′-AMP]	significantly stimulated exosome release		
Nc1ncnc2c1nc(Br)n2C1OC(CO)C2OP(=O)(O)OC21 (stereo not drawn) [8-Br-2′,3′-cAMP]	concentration-dependent increase in exosome secretion	greater in CNPase −/− compared with CNPase +/+ cells	
CCCn1c(=O)c2[nH]c(-c3ccc(OCC(=O)Nc4ccc(C#N)cc4)cc3)nc2n(CCC)c1=O [MRS 1754]			significantly decreased
Nc1ncnc2c1ncn2[C@@H]1O[C@H](CO)[C@H]2OP(=O)(O)O[C@H]21 [2′,3′-cAMP]	stimulated exosome production, but only at high concentrations		
Nc1ncnc2c1ncn2[C@@H]1O[C@H](CO)[C@@H](O)[C@H]1OP(=O)(O)O [2′-AMP]	did not affect exosome secretion		
